In patent US6979686B1, “Substituted pyrazoles as p38 kinase inhibitors” (Pharmacia Corporation, priority 2001, dated 2005):
Where two headings read alike, the source gives them in different places.

Molecular target: T1, human p38 kinase alpha (Homo sapiens, UniProt Q16539)
T1 construct: GST (N, cleaved yes); made in house; host or cells: E. coli DH10B
Assay: p38 kinase in vitro assay, phosphorylation of biotinylated PHAS-I with 32P-ATP
Format: biochemical

[1] = in vitro P38-alpha kinase inhibition, read-out: P38 alpha kinase IC50
[2] = in vitro P38-alpha kinase, read-out: P38 alpha kinase IC50

T1 sequence (Q16539 whole entry): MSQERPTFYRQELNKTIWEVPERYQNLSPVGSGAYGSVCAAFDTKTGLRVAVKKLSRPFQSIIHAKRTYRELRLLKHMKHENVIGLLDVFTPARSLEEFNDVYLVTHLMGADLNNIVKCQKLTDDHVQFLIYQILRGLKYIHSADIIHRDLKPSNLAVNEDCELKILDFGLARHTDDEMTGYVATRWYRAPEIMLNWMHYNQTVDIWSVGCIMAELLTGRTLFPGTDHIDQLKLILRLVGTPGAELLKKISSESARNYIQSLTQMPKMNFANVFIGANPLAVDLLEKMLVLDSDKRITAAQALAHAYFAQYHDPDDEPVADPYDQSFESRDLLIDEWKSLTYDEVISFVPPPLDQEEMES

Structure (SMILES) | IC50 [1] [µM] | also measured
N#Cc1cccc(C(=O)NCc2[nH]nc(-c3ccc(F)cc3)c2-c2ccncc2)c1 [Example B-0023] | – | inhibition at 1 µM (@ 1.0 uM, read-out: P38 alpha kinase % inhib @ conc.): 90%
CC(C)S(=O)(=O)NC(Cc1ccccc1)c1[nH]nc(-c2ccc(F)cc2)c1-c1ccncc1 (stereo not shown) [Example B-0754] | 0.55 | –
COc1ccc(OC)c(S(=O)(=O)NCCCc2[nH]nc(-c3ccc(F)cc3)c2-c2ccncc2)c1 [Example B-1262] | – | IC50 [2]: < 0.1 µM
CC(NS(=O)(=O)c1ccc(Cl)c(Cl)c1)c1[nH]nc(-c2ccc(F)cc2)c1-c1ccncc1 (stereo not shown) [Example B-0642] | 0.49 | –
O=S(=O)(NC(Cc1ccccc1)c1[nH]nc(-c2ccc(F)cc2)c1-c1ccncc1)c1cccs1 (stereo not shown) [Example B-0720] | 1.3 | –
COc1ccc(C(=O)N2CCC(c3[nH]nc(-c4ccc(F)cc4)c3-c3ccncc3)CC2)cc1 [Example B-1391] | – | IC50 [2]: 0.016 µM
O=C(NCCc1[nH]nc(-c2ccc(F)cc2)c1-c1ccncc1)c1ccccn1 [Example B-1007] | – | P38 alpha kinase % inhib @ conc. (uM) (@ 1.0 uM): 52.0% @
CC(NC(=O)NC(Cc1ccccc1)c1[nH]nc(-c2ccc(F)cc2)c1-c1ccncc1)c1ccccc1 (stereo not shown) [Example B-0781] | 48 | –
Cc1ccc(C(=O)NCCc2[nH]nc(-c3ccc(F)cc3)c2-c2ccncc2)cc1 [Example B-1122] | 1.84 | –
COc1ccc(S(=O)(=O)NC(Cc2ccccc2)c2[nH]nc(-c3ccc(F)cc3)c2-c2ccncc2)cc1 (stereo not shown) [Example B-0719] | 3.4 | –
O=C(N1CCC(c2[nH]nc(-c3ccc(F)cc3)c2-c2ccncc2)CC1)C(F)(F)F [Example B-1429] | – | IC50 [2]: < 0.1 µM
O=S(=O)(Cc1ccccc1)NCCCc1[nH]nc(-c2ccc(F)cc2)c1-c1ccncc1 [Example B-1194] | – | P38 alpha kinase % inhib @ conc. (uM) (@ 1.0 uM): 87.0% @
CC(NS(=O)(=O)C(C)C)c1[nH]nc(-c2ccc(F)cc2)c1-c1ccncc1 (stereo not shown) [Example B-0564] | 0.82 | –
O=C(O)c1n[nH]c(-c2ccc(F)cc2)c1-c1ccncc1 [A-313, Step 1, 5-(4-fluorophenyl)-4-(4pyridinyl)-1H-pyrazole-3-carboxylic acid, monohydrate] | – | IC50 (Table 8, 1% DMSO, read-out: p38α Kinase Assay IC50): 1.34 µM
O=S(=O)(NCCCc1[nH]nc(-c2ccc(F)cc2)c1-c1ccncc1)c1cccc2nonc12 [Example B-1282] | – | IC50 [2]: < 0.1 µM
CC(NS(=O)(=O)c1cc(S(=O)(=O)c2ccccc2)cs1)c1[nH]nc(-c2ccc(F)cc2)c1-c1ccncc1 (stereo not shown) [Example B-0661] | < 0.1 | –
Cc1ccccc1S(=O)(=O)NC(C)c1[nH]nc(-c2ccc(F)cc2)c1-c1ccncc1 (stereo not shown) [Example B-0646] | 0.26 | –
CC(C)(C)C(=O)N1CCC(c2[nH]nc(-c3ccc(F)cc3)c2-c2ccncc2)CC1 [Example B-1421] | – | IC50 [2]: 0.014 µM
CS(=O)(=O)c1ccc(S(=O)(=O)N2CCC(c3[nH]nc(-c4ccc(F)cc4)c3-c3ccncc3)CC2)cc1 [Example B-1476] | – | IC50 [2]: 0.047 µM
O=C(NCCCc1[nH]nc(-c2ccc(F)cc2)c1-c1ccncc1)c1ccncc1 [Example B-1183] | – | P38 alpha kinase % inhib @ conc. (uM) (@ 1.0 uM): 77.0% @
CC(=O)Nc1nc(C)c(S(=O)(=O)NCCc2[nH]nc(-c3ccc(F)cc3)c2-c2ccncc2)s1 [Example B-1058] | 0.66 | –
O=C(NCCc1[nH]nc(-c2ccc(F)cc2)c1-c1ccncc1)NCc1ccccc1 [Example B-1031] | – | P38 alpha kinase % inhib @ conc. (uM) (@ 1.0 uM): 69.0% @
O=S(=O)(NCCCc1[nH]nc(-c2ccc(F)cc2)c1-c1ccncc1)c1cccc(Cl)c1 [Example B-1267] | – | IC50 [2]: < 0.1 µM
CC(NS(=O)(=O)c1ccc(-c2ccon2)s1)c1[nH]nc(-c2ccc(F)cc2)c1-c1ccncc1 (stereo not shown) [Example B-0662] | < 0.1 | –
CC(NC(=O)c1c(F)ccc(F)c1F)c1[nH]nc(-c2ccc(F)cc2)c1-c1ccncc1 (stereo not shown) [Example B-0680] | 0.42 | –
O=C(NCCc1[nH]nc(-c2ccc(F)cc2)c1-c1ccncc1)Nc1ccccc1F [Example B-1038] | – | P38 alpha kinase % inhib @ conc. (uM) (@ 1.0 uM): 57.0% @
CC(NC(=O)c1c(Cl)cccc1Cl)c1[nH]nc(-c2ccc(F)cc2)c1-c1ccncc1 (stereo not shown) [Example B-0696] | 0.085 | –
O=C(NCCc1[nH]nc(-c2ccc(F)cc2)c1-c1ccncc1)c1ccccc1Br [Example B-1154] | 0.085 | –
